The target of assay [1] is T1, Insulin-degrading enzyme (Homo sapiens, UniProt P14735).
T1 sequence (P14735 whole entry): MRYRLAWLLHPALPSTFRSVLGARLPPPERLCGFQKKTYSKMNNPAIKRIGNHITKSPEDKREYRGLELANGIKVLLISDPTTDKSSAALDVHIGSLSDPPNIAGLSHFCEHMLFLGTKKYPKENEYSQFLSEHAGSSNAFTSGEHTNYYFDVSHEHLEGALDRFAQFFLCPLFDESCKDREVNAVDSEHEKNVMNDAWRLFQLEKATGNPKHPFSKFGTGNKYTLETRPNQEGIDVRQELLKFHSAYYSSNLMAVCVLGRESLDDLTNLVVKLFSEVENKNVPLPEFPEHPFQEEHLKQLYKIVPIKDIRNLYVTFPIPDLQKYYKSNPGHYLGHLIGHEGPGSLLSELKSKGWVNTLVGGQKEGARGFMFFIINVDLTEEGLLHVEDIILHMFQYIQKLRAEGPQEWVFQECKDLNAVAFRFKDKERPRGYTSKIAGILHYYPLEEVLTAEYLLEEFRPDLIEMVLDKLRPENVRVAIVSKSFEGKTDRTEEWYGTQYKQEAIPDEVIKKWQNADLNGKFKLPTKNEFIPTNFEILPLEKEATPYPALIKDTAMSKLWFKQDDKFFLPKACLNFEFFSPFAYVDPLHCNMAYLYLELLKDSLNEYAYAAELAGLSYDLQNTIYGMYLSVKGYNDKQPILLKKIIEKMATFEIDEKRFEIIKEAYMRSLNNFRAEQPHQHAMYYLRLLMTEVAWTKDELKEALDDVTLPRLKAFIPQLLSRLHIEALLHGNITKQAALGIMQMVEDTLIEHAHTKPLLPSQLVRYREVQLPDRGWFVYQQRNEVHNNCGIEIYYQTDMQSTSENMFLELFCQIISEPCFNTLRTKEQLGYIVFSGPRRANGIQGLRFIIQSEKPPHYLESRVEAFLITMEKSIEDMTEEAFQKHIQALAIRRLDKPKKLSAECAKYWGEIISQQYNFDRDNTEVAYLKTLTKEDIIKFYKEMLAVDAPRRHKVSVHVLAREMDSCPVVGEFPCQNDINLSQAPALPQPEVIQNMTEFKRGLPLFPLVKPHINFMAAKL
Nature of the assay: recombinant IDE activation, cell-free – biochemical, fluorescence polarization, counter-screen for IDE activator project, dose response (AID 588681). On the technique in general: Polarisation of emitted light reports the rotation of a fluorescent probe.

Assay [2] addresses T1, Insulin-degrading enzyme. Nature of the assay: cellular IDE activation of Abeta substrate cleavage – fluorescence polarization, HEK cells, dose response (AID 588439). In kind it is functional, cell-based.
In assay [3] the test system is HEK293. Nature of the assay: membrane integrity loss in HEK cells – cell-based, fluorescence, cytotoxicity control for IDE activator project, dose response (AID 588440).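 Note: cytotoxicity by LDH release measuring loss of membrane integrity.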 Format: functional. The conditions noted are these: Homo sapiens.
The test system of assay [4] is HEK293. The assay can be described thus: optical interference in Abeta FP readout, dose response, artefact control for IDE activator project, biochemical, fluorescence polarization (AID 588442). In kind it is functional, cell-based. The conditions noted are these: Homo sapiens.
A short description of assay [5]: A Cell Based Secondary Assay To Explore Cytotoxicity of Compounds that Sensitize Mycobacterium Tuberculosis to Beta-Lactam Antibiotics. In kind it is functional.
The target of assay [6] is Luciferin 4-monooxygenase (Photinus pyralis, UniProt P08659). Nature of the assay: inhibition of purified Photinus pyralis luciferase – biochemical, luminescence, dose response (AID 1891).
A short description of assay [7]: Luminescence Cell-Based Dose Confirmation HTS to Identify Inhibitors of Platelet Dense Granule Release. [Related pubchem assays: 1663 (Primary HTS), 1678 (Summary of Project)]. Format: functional.
In assay [8] the target is T2, Apoptotic protease-activating factor 1 (Homo sapiens, UniProt O14727).
T2 sequence (O14727 whole entry): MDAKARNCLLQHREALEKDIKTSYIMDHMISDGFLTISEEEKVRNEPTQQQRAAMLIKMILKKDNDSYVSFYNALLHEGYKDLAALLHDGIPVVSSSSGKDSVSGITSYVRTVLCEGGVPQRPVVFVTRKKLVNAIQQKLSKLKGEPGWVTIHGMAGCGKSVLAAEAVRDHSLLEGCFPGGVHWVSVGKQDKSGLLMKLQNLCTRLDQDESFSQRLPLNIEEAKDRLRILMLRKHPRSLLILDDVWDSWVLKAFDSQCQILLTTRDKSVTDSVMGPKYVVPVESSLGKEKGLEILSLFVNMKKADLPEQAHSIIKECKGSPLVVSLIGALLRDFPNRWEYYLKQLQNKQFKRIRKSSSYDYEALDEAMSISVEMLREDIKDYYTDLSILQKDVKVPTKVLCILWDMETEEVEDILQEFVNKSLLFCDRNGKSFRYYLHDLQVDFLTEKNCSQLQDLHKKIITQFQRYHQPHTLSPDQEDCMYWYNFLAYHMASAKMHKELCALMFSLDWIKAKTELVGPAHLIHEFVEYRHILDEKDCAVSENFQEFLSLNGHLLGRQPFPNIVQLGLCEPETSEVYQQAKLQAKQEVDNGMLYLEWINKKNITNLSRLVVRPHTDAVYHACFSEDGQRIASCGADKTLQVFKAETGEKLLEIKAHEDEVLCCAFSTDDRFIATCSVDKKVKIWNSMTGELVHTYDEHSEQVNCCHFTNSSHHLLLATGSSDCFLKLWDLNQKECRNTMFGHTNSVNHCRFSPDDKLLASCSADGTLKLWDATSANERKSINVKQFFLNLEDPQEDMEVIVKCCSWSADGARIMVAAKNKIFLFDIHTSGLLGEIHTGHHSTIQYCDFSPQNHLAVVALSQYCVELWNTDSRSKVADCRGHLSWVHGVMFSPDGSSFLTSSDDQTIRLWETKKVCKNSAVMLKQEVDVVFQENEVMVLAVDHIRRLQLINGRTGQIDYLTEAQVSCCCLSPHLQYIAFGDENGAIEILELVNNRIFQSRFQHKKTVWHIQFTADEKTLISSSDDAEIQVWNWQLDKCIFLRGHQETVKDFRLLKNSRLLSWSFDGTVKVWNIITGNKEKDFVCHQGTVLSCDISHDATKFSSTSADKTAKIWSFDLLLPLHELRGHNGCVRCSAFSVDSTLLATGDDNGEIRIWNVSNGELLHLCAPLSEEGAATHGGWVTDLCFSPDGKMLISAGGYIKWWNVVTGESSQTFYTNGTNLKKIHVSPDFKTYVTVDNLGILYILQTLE
Format: functional.

Assay [9] can be described thus: Luminescence Cell-Based Dose Confirmation HTS to Identify Activators of 5'UTR Stem-Loop Driven Alpha-Synuclein mRNA Translation in H4 Neuroglioblastoma Cells. [Related pubchem assays: 1829 (Project Summary), 1814 (Primary HTS)]. Format: functional.
Assay [10] can be described thus: Luminescence Cell-Based Dose Response HTS to Identify Activators of Luciferase Translation or Activity in H4 […] Cells. [Related pubchem assays: 1829 (Project Summary), 1814 (Primary HTS)]. Format: functional.
The subject of assay [11] is BJ. Nature of the assay: BJ-TERT fibroblast viability loss – cell-based, RAS-independent, luminescence, dose response (AID 1933). In kind it is functional. As to conditions: Homo sapiens.
The subject of a further assay is H4. Nature of the assay: Luminescence Cell-Based Dose Response HTS to Identify Activators of 5'UTR Stem-Loop Driven Prion Protein mRNA Translation in H4 Neuroglioblastoma Cells. [Related pubchem assays: 1829 (Project Summary), 1814 (Primary HTS)]. As to conditions: Homo sapiens. Format: functional.
For assay [12], the system named is BJ. The assay can be described thus: cells. In kind it is functional, cell-based. The conditions noted are these: Homo sapiens.
In assay [13] the test system is BJ. The assay can be described thus: BJ-TERT-LT-ST fibroblast viability loss – cell-based, RAS-independent, luminescence, dose response (AID 1935).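 Note: BJ fibroblasts immortalized with TERT plus LT and ST oncogenes.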 In kind it is functional. The conditions noted are these: Homo sapiens.
A short description of assay [14]: DRD fibroblast viability loss – cell-based, non-viral oncogenic, luminescence, dose response (AID 1934). In kind it is functional. The conditions noted are these: Homo sapiens.
The subject of assay [15] is BJ. The assay can be described thus: growth inhibition of engineered Ras-driven BJ cells – cell-based, alamar blue fluorescence, cherrypicked samples, dose response (AID 2631).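 Note: confirmatory dose-response assay in RAS-dependent BJ fibroblasts engineered with TERT, LT and ST, with cytotoxicity read by fluorescence.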 In kind it is functional. As to conditions: Homo sapiens.
The test system of a further assay is Vero. Nature of the assay: cells. In kind it is functional. The conditions noted are these: Chlorocebus sabaeus.
The nature of assay [16]: NIH-3T3 fibroblast cytotoxicity, dose response, cytotoxicity control, cell-based, fluorescence, Alamar Blue, secondary assay (AID 2327).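 Note: NIH-3T3 mouse fibroblasts cultured with fluconazole at 8 µg/mL.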 Format: functional. A general note: The colour change of resazurin is a common sign of viable cells or microbes.
A short description of assay [17]: fluconazole-exposed Candida albicans growth modulators – fluorescence, retest, confirmation (AID 2467). Format: functional, cell-based.
A short description of assay [18]: Luminescence Cell-Based Dose Retest to Confirm Inhibitors of Cancer Stem Cells. [Related pubchem assays (depositor defined):AID2717, AID2721]. Format: functional. The conditions noted are these: Homo sapiens.
In the next assay the test system is Jurkat. Nature of the assay: blockers of NF-kB activation in T cells – Jurkat, luciferase reporter, luminescence, B- and T-cell, dose response (AID 489004).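 Note: NF-kB luciferase reporter Jurkat cells stimulated with PMA plus ionomycin.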 In kind it is functional, cell-based. As to conditions: Homo sapiens. (Reporter assays use an easily measured gene product as a stand-in for the process of interest.)
The target in assay [19] is T3, Ubiquitin-conjugating enzyme E2 N (Homo sapiens, UniProt P61088).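 Note: Dose-response confirmation in a TR-FRET assay detecting UBC13-driven polyubiquitin chain formation, inhibition measured.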
T3 sequence (P61088 whole entry): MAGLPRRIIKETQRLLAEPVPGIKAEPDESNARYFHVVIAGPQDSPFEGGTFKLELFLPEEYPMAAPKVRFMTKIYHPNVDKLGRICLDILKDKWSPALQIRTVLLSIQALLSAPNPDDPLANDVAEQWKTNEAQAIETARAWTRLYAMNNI
In kind it is functional.

Assay [20] is described as follows: HEK-293T viability loss, compound-treated – cell-based, uHTS hits, cytotoxicity control for B/T-cell NF-kB inhibitor project, dose response (AID 489019).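 Note: IC50 reflects cytotoxicity as loss of cell viability.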 In kind it is functional.
The test system of a further assay is INS1. Nature of the assay: INS-1E survival protection against cytokine death – cell-based, luminescence, retest, dose response (AID 449756).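 Note: cell death triggered by IL-1 beta plus TNF-alpha plus IFN-gamma mixture; protective hits raise ATP signal compared with cytokine alone wells.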 As to conditions: Rattus norvegicus. In kind it is functional.
The target of assay [21] is T4, DNA repair protein RAD52 homolog (Homo sapiens, UniProt P43351).
T4 sequence (P43351 whole entry): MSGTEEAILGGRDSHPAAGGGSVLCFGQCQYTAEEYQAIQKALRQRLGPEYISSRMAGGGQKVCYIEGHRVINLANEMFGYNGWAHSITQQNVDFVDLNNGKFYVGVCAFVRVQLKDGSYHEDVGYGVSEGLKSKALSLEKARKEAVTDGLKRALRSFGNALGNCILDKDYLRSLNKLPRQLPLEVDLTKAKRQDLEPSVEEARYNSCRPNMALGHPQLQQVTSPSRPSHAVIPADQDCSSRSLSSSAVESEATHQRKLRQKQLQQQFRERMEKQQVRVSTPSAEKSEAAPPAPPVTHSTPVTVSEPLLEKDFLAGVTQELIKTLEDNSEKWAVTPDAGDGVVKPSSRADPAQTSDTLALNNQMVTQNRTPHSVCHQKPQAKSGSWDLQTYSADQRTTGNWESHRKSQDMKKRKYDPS
In kind it is functional, biochemical.

Each structure is given as a SMILES string. Active and inactive are the calls of the source.

Luciferin 4-monooxygenase, sequence (P08659 whole entry): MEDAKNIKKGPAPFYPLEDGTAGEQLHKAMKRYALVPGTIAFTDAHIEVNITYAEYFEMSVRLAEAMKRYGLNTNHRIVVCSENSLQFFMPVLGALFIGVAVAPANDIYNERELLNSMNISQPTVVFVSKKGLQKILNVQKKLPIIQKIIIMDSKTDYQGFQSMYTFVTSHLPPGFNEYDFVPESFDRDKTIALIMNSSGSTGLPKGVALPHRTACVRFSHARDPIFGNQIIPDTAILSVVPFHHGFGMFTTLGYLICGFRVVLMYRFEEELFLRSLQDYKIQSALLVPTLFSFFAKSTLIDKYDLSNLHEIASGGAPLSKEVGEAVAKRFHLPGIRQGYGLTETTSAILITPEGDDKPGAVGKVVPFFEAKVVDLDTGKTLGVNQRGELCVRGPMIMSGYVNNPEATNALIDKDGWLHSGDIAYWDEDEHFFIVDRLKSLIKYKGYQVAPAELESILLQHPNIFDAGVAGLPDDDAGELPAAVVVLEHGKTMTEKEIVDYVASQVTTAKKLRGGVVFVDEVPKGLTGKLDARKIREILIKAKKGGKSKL

In general, EC50 refers to the concentration at which the effect is half-maximal. What is called IC50 is the concentration that gives 50% inhibition. With `CC(=O)Nc1ccc(NC(=O)COC(=O)c2[nH]nc3ccccc23)cc1`, the EC50 on Insulin-degrading enzyme [1], at Insulin-degrading enzyme [2] and in the assay with HEK293 [4] was > 54.7 µM (inactive) in each case. Moreover, the IC50 with HEK293 [3] is > 89.2 µM (inactive).

In general, CC50 refers to the concentration that lowers cell viability or growth by half. `O=C1N/C(=C\c2ccc(O)cc2)C(=O)c2ccccc21`: the CC50 in assay [5] was > 40 µM (active). Also, the results for the concentration giving a half-maximal response (EC50) in assay [6] and in [7] were 0.661 µM (active) and 1.15 µM (active), respectively. The half-maximal inhibitory concentration (IC50) in [8] is 3.21 µM (active).

Consider `CN1CCN(C(=O)CCCN2C(=O)/C(=C/c3cccc(Br)c3)SC2=S)CC1`, for which the EC50 is 13.9 µM (active) in assay [9]; > 120 µM (not active) in [10]; 1.93 µM (active) in the assay on BJ [11]; > 120 µM (not active) in the assay on H4; > 150 µM (inconclusive) in the assay with BJ [12]; > 150 µM (inconclusive) in the assay with BJ [13]. The values for the EC50 (in assay [14]; in the assay on BJ [15]) were 4.36 µM (active) and > 66.7 µM (inactive), respectively. In addition, the 50% cytotoxic concentration (CC50) with Vero was > 25 µM (active).

For orientation: AC50 means the concentration giving half of the maximal activity seen. For `CCCCCc1ccc(OCCCC[n+]2cccc(C)c2)c(CCCCC)c1`, the EC50 in [16] was > 150 µM (inactive); in [17], 0.755 µM (active). Further, the AC50 in assay [18] is 0.694 µM (active); in the assay with INS1 it was 1.64 µM (active); in assay [21], 15.1 µM (active). The IC50 was 4.68 µM (active) in the assay on Jurkat, > 20 µM (inactive) in assay [19], 68.8 µM (inactive) in assay [20] and 28.5 µM (active) in assay [8].
